One assay deals with late watergrass. Nature of the assay: Test Example 1: herbicidal activity, application before weed generation under submerged conditions (Table 16, symbol A). Type of assay: in vivo, late watergrass (Echinochloa oryzicola). To be noted: amount of applied herbicide 320 g/ha. Put shortly:
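Emulsion formulation, water-diluted to set dose, was put onto the flooded surface (4 cm depth, alluvial soil) the same day weeds were sown and 2.5-leaf rice transplanted. After 3 weeks at 25-30 °C under glass, each species was rated 0 (≤5% kill) to 5 (≥90% kill).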

The subject of the next assay is oval-leafed pondweed. Nature of the assay: Test Example 2: herbicidal activity, application during weed generation under submerged conditions (Table 17, symbol C). The format is in vivo, oval-leafed pondweed (Monochoria vaginalis). To be noted: AAH 320 g/ha; application during weed generation, submerged conditions. An outline of the steps: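 Wagner pot, alluvial soil, 4 cm flood; mixed sowing of all species; greenhouse 25° C.–30° C. Emulsifiable formulation, water-diluted to predetermined dose, applied to paddy water at 1–2 leaf stage. Effect rated at 3 wk using the earlier test's scoring criteria.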

For another assay, the system named is Chinese sprangletop. Description: Test Example 3: herbicidal effect by foliage application, Wagner pot (Table 18, symbol D). To be noted: 320 g/ha. Type of assay: in vivo, chinese sprangletop (Leptochloa chinensis). Put shortly: (§1)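 Plants were sown in alluvial soil held under 0.1–0.5 cm standing water and grown 14 days in a greenhouse at 25–30 °C. An emulsifiable formulation, water-diluted to the set dose, was then sprayed onto the foliage, and effects were scored three weeks later using previously defined criteria.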

The next assay has as its system rice flat sedge. Nature of the assay: Test Example 3: herbicidal effect by foliage application, Wagner pot (Table 18, symbol E). Type of assay: in vivo, rice flat sedge (Cyperus iria). Particulars: 320 g/ha. Put shortly:
as §1

For the next assay, the system named is green foxtail. Description: Test Example 4: herbicidal effect by soil treatment (Table 19, symbol G). The format is in vivo, green foxtail (Setaria viridis). Particulars: amount of applied herbicide 320 g/ha. Put shortly:
(§2)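 Three weeks of greenhouse growth at 25° C. to 30° C. followed a uniform surface spray of water-diluted emulsion at a predetermined herbicide amount. Seeds had been sown beforehand under about 1.5 cm of sterilized diluvial soil. Grading followed criteria set out in an earlier test.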

A further assay deals with wild oat. Description: Test Example 4: herbicidal effect by soil treatment (Table 19, symbol I). The format is in vivo, wild oat (Avena fatua). To be noted: amount of applied herbicide 320 g/ha. Put shortly:
as §2

In assay [1] the test system is Italian ryegrass. Description: Test Example 4: herbicidal effect by soil treatment (Table 19, symbol K). The format is in vivo, Italian ryegrass (Lolium multiflorum). To be noted: amount of applied herbicide 320 g/ha. Put shortly:
as §2

Assay [2] concerns windgrass. Description: Test Example 4: herbicidal effect by soil treatment (Table 19, symbol L). The format is in vivo, windgrass (Apera spica-venti). To be noted: amount of applied herbicide 320 g/ha. An outline of the steps: as §2
Assay [3] relates to velvetleaf. Description: Test Example 4: herbicidal effect by soil treatment (Table 19, symbol M). Type of assay: in vivo, velvetleaf (Abutilon theophrasti). To be noted: amount of applied herbicide 320 g/ha. An outline of the steps: as §2
In the next assay the test system is lambsquarters. Nature of the assay: Test Example 4: herbicidal effect by soil treatment (Table 19, symbol O). The format is in vivo, lambsquarters (Chenopodium album). To be noted: amount of applied herbicide 320 g/ha. An outline of the steps:
as §2

Another assay relates to persian speedwell. Description: Test Example 4: herbicidal effect by soil treatment (Table 19, symbol R). Type of assay: in vivo, Persian speedwell (Veronica persica). To be noted: amount of applied herbicide 320 g/ha. Put shortly: as §2
The test system of a further assay is barnyard grass. Description: Test Example 5: herbicidal effect by foliage application, plastic box (Table 20, symbol H). Particulars: 320 g/ha; for H: barnyard grass, herbicidal effect grade: foliage application, three weeks after application. The format is in vivo, barnyard grass (Echinochloa crus-galli). Put shortly: (§3)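 Plants sown in sterilized diluvial soil and grown 14 days in a greenhouse at 25° C to 30° C, then sprayed on the foliage with the compound's emulsion diluted in water to a predetermined herbicide amount. Injury to weeds and crops scored three weeks after application on a visual rating scale.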

The test system of assay [4] is Italian ryegrass. Nature of the assay: Test Example 5: herbicidal effect by foliage application, plastic box (Table 20, symbol K). Type of assay: in vivo, Italian ryegrass (Lolium multiflorum). To be noted: 320 g/ha; for K: Italian ryegrass, herbicidal effect grade: foliage application, three weeks after application. Put shortly:
as §3

Assay [5] has as its system windgrass. Nature of the assay: Test Example 5: herbicidal effect by foliage application, plastic box (Table 20, symbol L). The format is in vivo, windgrass (Apera spica-venti). To be noted: 320 g/ha; for L: windgrass, herbicidal effect grade: foliage application, three weeks after application. An outline of the steps:
as §3

Assay [6] concerns velvetleaf. Description: Test Example 5: herbicidal effect by foliage application, plastic box (Table 20, symbol M). Type of assay: in vivo, velvetleaf (Abutilon theophrasti). To be noted: 320 g/ha; for M: velvetleaf, herbicidal effect grade: foliage application, three weeks after application. An outline of the steps:
as §3

The test system of a further assay is chickweed. Description: Test Example 5: herbicidal effect by foliage application, plastic box (Table 20, symbol P). The format is in vivo, common chickweed (Stellaria media). Particulars: 320 g/ha; for P: chickweed, herbicidal effect grade: foliage application, three weeks after application. An outline of the steps:
as §3

Setting [7] is: foliage application after 14-day growth, evaluated three weeks after application.

The structures appear in SMILES notation.

For `CCCC(=O)Oc1c(C)nn(C)c(=O)c1-c1c(-c2ccc(OC(F)(F)F)cc2)sc2cc(F)ccc12` [3-144], in the assay on late watergrass, the “Herbicidal effect, A: late watergrass” value is 5 (Herbicidal rate of 90% or more (almost completely withered)). In addition, the “herbicidal effect rating, C: oval-leafed pondweed” value (“herbicidal effect rating, C” below) in the assay on oval-leafed pondweed is 2 (Herbicidal rate of 20% or more and less than 40%). Further, the “herbicidal effect on Chinese sprangletop (D)” value (“herbicidal effect … (D)” below) with Chinese sprangletop is 4 (Herbicidal rate of 70% or more and less than 90%). Moreover, the “herbicidal effect on rice flat sedge (E)” value in the assay on rice flat sedge is 5 (Herbicidal rate of 90% or more (almost completely withered)). Also, the “Herbicidal effect by soil treatment, G: green foxtail” value with green foxtail was 0 (Herbicidal rate of 5% or less (almost no effect)). Also, the “Herbicidal effect by soil treatment, I: wild oat” value with wild oat is reported as 0 (Herbicidal rate of 5% or less (almost no effect)). The “Herbicidal effect by soil treatment, K: Italian ryegrass” value in the assay with Italian ryegrass [1] is given as 0 (Herbicidal rate of 5% or less (almost no effect)). In the assay on windgrass [2], the “Herbicidal effect by soil treatment, L: windgrass” value is listed as 0 (Herbicidal rate of 5% or less (almost no effect)). Besides, the “Herbicidal effect by soil treatment, M: velvetleaf” value in the assay with velvetleaf [3] was 0 (Herbicidal rate of 5% or less (almost no effect)). Further, the “Herbicidal effect by soil treatment, O: lambsquarters” value in the assay with lambsquarters was 3 (Herbicidal rate of 40% or more and less than 70%). Further, the “Herbicidal effect by soil treatment, R: persian speedwell” value in the assay with persian speedwell is recorded as 0 (Herbicidal rate of 5% or less (almost no effect)). Moreover, the “herbicidal effect on H: barnyard grass (evaluation grade 0-5)” value in the assay on barnyard grass (setting [7]) was 4 (Herbicidal rate of 70% or more and less than 90%). Further, in the assay with Italian ryegrass [4] (setting [7]), the “herbicidal effect on K: Italian ryegrass (evaluation grade 0-5)” value is given as 0 (Herbicidal rate of 5% or less (almost no effect)). For the same compound, in the assay on windgrass [5] (setting [7]), the “herbicidal effect on L: windgrass (evaluation grade 0-5)” value is recorded as 0 (Herbicidal rate of 5% or less (almost no effect)). The “herbicidal effect on M: velvetleaf (evaluation grade 0-5)” value in the assay with velvetleaf [6] (setting [7]) is 4 (Herbicidal rate of 70% or more and less than 90%). Moreover, the “herbicidal effect on P: chickweed (evaluation grade 0-5)” value in the assay with chickweed (setting [7]) is recorded as 5 (Herbicidal rate of 90% or more (almost completely withered)).
Take `COc1ccccc1-c1sc2cc(OC3CCCC3)ccc2c1-c1c(O)c(C)nn(C)c1=O` [3-109]: the “Herbicidal effect, A: late watergrass” value with late watergrass is on record as 5 (Herbicidal rate of 90% or more (almost completely withered)). Further, the “herbicidal effect rating, C” value in the assay on oval-leafed pondweed is 2 (Herbicidal rate of 20% or more and less than 40%). Also, the “herbicidal effect … (D)” value in the assay with Chinese sprangletop is 4 (Herbicidal rate of 70% or more and less than 90%). Further, in the assay on rice flat sedge, the “herbicidal effect on rice flat sedge (E)” value was 4 (Herbicidal rate of 70% or more and less than 90%). Further, the “G: green foxtail, herbicidal effect grade” value with green foxtail is 4 (Herbicidal rate of 70% or more and less than 90%). Further, the “I: wild oat, herbicidal effect grade” value with wild oat is listed as 5 (Herbicidal rate of 90% or more (almost completely withered)). The “K: Italian ryegrass, herbicidal effect grade” value with Italian ryegrass [1] is 4 (Herbicidal rate of 70% or more and less than 90%); in the assay with Italian ryegrass [4], 4 (Herbicidal rate of 70% or more and less than 90%). For the same compound, the “L: windgrass, herbicidal effect grade” value was 0 (Herbicidal rate of 5% or less (almost no effect)) with windgrass [2]; 4 (Herbicidal rate of 70% or more and less than 90%) with windgrass [5]. For the same compound, the “M: velvetleaf, herbicidal effect grade” value in the assay on velvetleaf [3] is 5 (Herbicidal rate of 90% or more (almost completely withered)); with velvetleaf [6], 4 (Herbicidal rate of 70% or more and less than 90%). The “O: lambsquarters, herbicidal effect grade” value in the assay with lambsquarters is 5 (Herbicidal rate of 90% or more (almost completely withered)). The “R: persian speedwell, herbicidal effect grade” value with persian speedwell was 4 (Herbicidal rate of 70% or more and less than 90%). Further, in the assay with barnyard grass, the “H: barnyard grass, herbicidal effect grade” value is 4 (Herbicidal rate of 70% or more and less than 90%). The “P: chickweed, herbicidal effect grade” value in the assay on chickweed is given as 5 (Herbicidal rate of 90% or more (almost completely withered)).
Regarding `CCCCOc1ccc2c(-c3c(O)c(C)nn(C)c3=O)c(-c3ccccc3OC)sc2c1` [3-105], in the assay with late watergrass, the “Herbicidal effect, A: late watergrass” value was 5 (Herbicidal rate of 90% or more (almost completely withered)). Moreover, the “herbicidal effect rating, C” value with oval-leafed pondweed is 4 (Herbicidal rate of 70% or more and less than 90%). The “herbicidal effect … (D)” value in the assay with Chinese sprangletop is given as 5 (Herbicidal rate of 90% or more (almost completely withered)). Moreover, in the assay with rice flat sedge, the “herbicidal effect on rice flat sedge (E)” value is 4 (Herbicidal rate of 70% or more and less than 90%). In addition, in the assay with green foxtail, the “G: green foxtail, herbicidal effect grade” value was 3 (Herbicidal rate of 40% or more and less than 70%). The “I: wild oat, herbicidal effect grade” value with wild oat is recorded as 0 (Herbicidal rate of 5% or less (almost no effect)). Moreover, the “K: Italian ryegrass, herbicidal effect grade” value in the assay with Italian ryegrass [1] and in the assay on Italian ryegrass [4] was 5 (Herbicidal rate of 90% or more (almost completely withered)) in each case. For the same compound, the “L: windgrass, herbicidal effect grade” value with windgrass [2] was 4 (Herbicidal rate of 70% or more and less than 90%); in the assay on windgrass [5], 5 (Herbicidal rate of 90% or more (almost completely withered)). Also, the results for the “M: velvetleaf, herbicidal effect grade” value in the assay on velvetleaf [3] and in the assay with velvetleaf [6] were 0 (Herbicidal rate of 5% or less (almost no effect)) and 5 (Herbicidal rate of 90% or more (almost completely withered)), respectively. In addition, the “O: lambsquarters, herbicidal effect grade” value in the assay with lambsquarters was 3 (Herbicidal rate of 40% or more and less than 70%). In addition, the “R: persian speedwell, herbicidal effect grade” value in the assay with persian speedwell was 5 (Herbicidal rate of 90% or more (almost completely withered)). For the same compound, in the assay on barnyard grass, the “H: barnyard grass, herbicidal effect grade” value is 4 (Herbicidal rate of 70% or more and less than 90%). Also, the “P: chickweed, herbicidal effect grade” value with chickweed is reported as 5 (Herbicidal rate of 90% or more (almost completely withered)).
With `COc1ccccc1-c1sc2cc(OCc3ccccc3)ccc2c1-c1c(O)c(C)nn(C)c1=O` [3-118], the “Herbicidal effect, A: late watergrass” value in the assay on late watergrass is 3 (Herbicidal rate of 40% or more and less than 70%). Moreover, in the assay with oval-leafed pondweed, the “herbicidal effect rating, C” value is given as 0 (Herbicidal rate of 5% or less (almost no effect)). Also, the “herbicidal effect … (D)” value with Chinese sprangletop is on record as 0 (Herbicidal rate of 5% or less (almost no effect)). For the same compound, the “herbicidal effect on rice flat sedge (E)” value with rice flat sedge is 5 (Herbicidal rate of 90% or more (almost completely withered)). The “G: green foxtail, herbicidal effect grade” value in the assay on green foxtail is recorded as 0 (Herbicidal rate of 5% or less (almost no effect)). The “I: wild oat, herbicidal effect grade” value in the assay on wild oat is 0 (Herbicidal rate of 5% or less (almost no effect)). The “K: Italian ryegrass, herbicidal effect grade” value in the assay on Italian ryegrass [1] is 3 (Herbicidal rate of 40% or more and less than 70%); in the assay with Italian ryegrass [4] it was 5 (Herbicidal rate of 90% or more (almost completely withered)). The “L: windgrass, herbicidal effect grade” value in the assay with windgrass [2] is 3 (Herbicidal rate of 40% or more and less than 70%); in the assay on windgrass [5], 5 (Herbicidal rate of 90% or more (almost completely withered)). Besides, the “M: velvetleaf, herbicidal effect grade” value was 0 (Herbicidal rate of 5% or less (almost no effect)) in the assay on velvetleaf [3]; 2 (Herbicidal rate of 20% or more and less than 40%) with velvetleaf [6]. Besides, the “O: lambsquarters, herbicidal effect grade” value in the assay on lambsquarters is 1 (Herbicidal rate of 5% or more and less than 20%). Also, the “R: persian speedwell, herbicidal effect grade” value in the assay on persian speedwell is 5 (Herbicidal rate of 90% or more (almost completely withered)). In addition, in the assay with barnyard grass, the “H: barnyard grass, herbicidal effect grade” value is recorded as 0 (Herbicidal rate of 5% or less (almost no effect)). In addition, the “P: chickweed, herbicidal effect grade” value in the assay on chickweed is 3 (Herbicidal rate of 40% or more and less than 70%).

The values are drawn from patent US20230085307A1, “PYRIDAZINONE COMPOUND AND HERBICIDE” (NISSAN CHEMICAL CORPORATION, priority 2019, published 2023).
